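Results reflect a 48-hour exposure of cells in 96-well plates to compound at five concentrations. At the GI50, growth is halved.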 Active and inactive are the calls of the source. Rule as the data show it: active = GI50 up to about 1.1 µM and inactive = higher.
What was measured:
Test in all cases: inhibition of tumour cell growth, NCI panel, 48 h
ACHN = tested on: ACHN
HOP-92 = tested on: HOP-92
RXF 393 = tested on: RXF 393
786-0 = tested on: 786-0
SK-MEL-2 = tested on: SK-MEL-2
CAKI-1 = tested on: CAKI-1
HCC 2998 = tested on: HCC 2998
RPMI-8226 = tested on: RPMI-8226
HCT-116 = tested on: HCT-116
SF-539 = tested on: SF-539
NCI-H522 = tested on: NCI-H522
COLO 205 = tested on: COLO 205
CCRF-CEM = tested on: CCRF-CEM
SF-295 = tested on: SF-295
TK-10 = tested on: TK-10
SNB-19 = tested on: SNB-19
UO-31 = tested on: UO-31
NCI-H460 = tested on: NCI-H460
MOLT-4 = tested on: MOLT-4
NCI-H226 = tested on: NCI-H226

Measured: GI50

Nc1nc(-c2cccs2)cs1
inactive: ACHN 98.6 µM | HOP-92 26.4 µM | RXF 393 > 100 µM | 786-0 > 100 µM | SK-MEL-2 > 100 µM | CAKI-1 > 100 µM | HCC 2998 57.9 µM | RPMI-8226 90.8 µM | HCT-116 56.8 µM | SF-539 > 100 µM | NCI-H522 34.9 µM | COLO 205 88.1 µM | CCRF-CEM 29 µM | SF-295 64.4 µM | TK-10 87.9 µM | SNB-19 > 100 µM | UO-31 54.6 µM | NCI-H460 47.9 µM

CCOC(=O)c1csc(NC(=O)CN2CCOCC2)n1
inactive: ACHN > 100 µM | HOP-92 > 100 µM | RXF 393 > 100 µM | SK-MEL-2 > 100 µM | MOLT-4 17.1 µM | CAKI-1 > 100 µM | HCC 2998 > 100 µM | RPMI-8226 > 100 µM | SF-539 > 100 µM | COLO 205 > 100 µM | CCRF-CEM > 100 µM | SF-295 > 100 µM | TK-10 > 100 µM | SNB-19 > 100 µM | UO-31 > 100 µM | NCI-H460 > 100 µM

CC1=C(O)C(=O)C2C(=O)C1C(C)C2c1ccc(C)cc1 (stereo unspecified)
inactive: ACHN > 100 µM | HOP-92 > 100 µM | RXF 393 > 100 µM | 786-0 > 100 µM | SK-MEL-2 > 100 µM | MOLT-4 > 100 µM | CAKI-1 > 100 µM | HCC 2998 > 100 µM | RPMI-8226 > 100 µM | SF-539 > 100 µM | NCI-H522 > 100 µM | COLO 205 > 100 µM | CCRF-CEM > 100 µM | SF-295 > 100 µM | TK-10 > 100 µM | SNB-19 > 100 µM | UO-31 > 100 µM | NCI-H460 > 100 µM

Cc1c(OCc2cccc3ccccc23)ccc2c(=O)cc(SCCN3CCOCC3)oc12
inactive: ACHN > 100 µM | HOP-92 > 100 µM | RXF 393 > 100 µM | NCI-H226 > 100 µM | 786-0 > 100 µM | SK-MEL-2 > 100 µM | MOLT-4 > 100 µM | CAKI-1 > 100 µM | HCC 2998 > 100 µM | HCT-116 > 100 µM | SF-539 > 100 µM | NCI-H522 90.6 µM | COLO 205 > 100 µM | CCRF-CEM > 100 µM | SF-295 > 100 µM | TK-10 > 100 µM | SNB-19 > 100 µM | UO-31 > 100 µM | NCI-H460 6.53 µM

CC(=O)NC1C(Sc2ncn(C3OC(CO)C(O)C(O)C3NC(C)=O)n2)OC(CO)C(O)C1O (stereo unspecified)
inactive: ACHN > 100 µM | HOP-92 > 100 µM | RXF 393 > 100 µM | 786-0 > 100 µM | SK-MEL-2 > 100 µM | MOLT-4 > 100 µM | CAKI-1 > 100 µM | HCC 2998 > 100 µM | RPMI-8226 > 100 µM | HCT-116 > 100 µM | SF-539 > 100 µM | NCI-H522 > 100 µM | COLO 205 > 100 µM | CCRF-CEM 29 µM | SF-295 > 100 µM | TK-10 > 100 µM | SNB-19 > 100 µM | NCI-H460 > 100 µM

CC(C)C1N2CCCCC2[C@@H]2c3[nH]c4ccccc4c3CCN12 (stereo partly specified)
inactive: ACHN > 100 µM | HOP-92 > 100 µM | RXF 393 > 100 µM | 786-0 > 100 µM | SK-MEL-2 > 100 µM | MOLT-4 > 100 µM | CAKI-1 > 100 µM | HCC 2998 > 100 µM | RPMI-8226 > 100 µM | HCT-116 > 100 µM | SF-539 > 100 µM | COLO 205 > 100 µM | CCRF-CEM > 100 µM | SF-295 > 100 µM | SNB-19 > 100 µM | UO-31 > 100 µM | NCI-H460 > 100 µM

COC(=O)Cc1nn2c(nc1=O)sc1ccc3ccccc3c12
inactive: ACHN 56.9 µM | HOP-92 63.8 µM | RXF 393 50.7 µM | NCI-H226 > 100 µM | 786-0 44.3 µM | SK-MEL-2 93.8 µM | MOLT-4 > 100 µM | CAKI-1 50.2 µM | HCC 2998 > 100 µM | HCT-116 > 100 µM | SF-539 > 100 µM | NCI-H522 37.2 µM | COLO 205 > 100 µM | CCRF-CEM > 100 µM | SNB-19 > 100 µM | UO-31 > 100 µM | NCI-H460 62.7 µM

COC1(OC)CC2C=C(S(=O)(=O)c3ccccc3)C1N(Cc1ccccc1)C2=O (stereo unspecified)
inactive: ACHN 41.3 µM | HOP-92 28.3 µM | RXF 393 17.9 µM | NCI-H226 29.9 µM | 786-0 39.4 µM | MOLT-4 23.2 µM | HCC 2998 60.3 µM | HCT-116 13.4 µM | SF-539 21 µM | NCI-H522 16.4 µM | COLO 205 19.9 µM | CCRF-CEM 16.2 µM | SF-295 50.9 µM | TK-10 26.6 µM | SNB-19 39.8 µM | UO-31 35.5 µM | NCI-H460 29.3 µM

NC(=O)N/C=C1\C(=O)Oc2ccccc2C1=O
inactive: ACHN 48.2 µM | HOP-92 56.9 µM | RXF 393 17.4 µM | NCI-H226 > 100 µM | SK-MEL-2 40 µM | MOLT-4 > 100 µM | HCC 2998 > 100 µM | RPMI-8226 > 100 µM | HCT-116 > 100 µM | SF-539 85.9 µM | COLO 205 > 100 µM | CCRF-CEM > 100 µM | SF-295 51.8 µM | TK-10 > 100 µM | SNB-19 82.8 µM | UO-31 31.9 µM | NCI-H460 > 100 µM

Nc1nc(SCc2ccc([N+](=O)[O-])cc2)nc2c1ncn2C1OC(COP(=O)(O)O)C(O)C1O (stereo unspecified)
inactive: ACHN > 100 µM | HOP-92 > 100 µM | RXF 393 > 100 µM | NCI-H226 > 100 µM | SK-MEL-2 > 100 µM | MOLT-4 > 100 µM | HCC 2998 > 100 µM | HCT-116 > 100 µM | SF-539 > 100 µM | NCI-H522 > 100 µM | COLO 205 > 100 µM | CCRF-CEM > 100 µM | SF-295 > 100 µM | TK-10 > 100 µM | SNB-19 > 100 µM | NCI-H460 > 100 µM

COc1ccc(C2c3cc4c(cc3OC(O)(CO)C2C(=O)O)OCO4)cc1.COc1ccc(C2c3cc4c(cc3OC3(O)COC(=O)C23)OCO4)cc1 (stereo unspecified)
inactive: HOP-92 21 µM | RXF 393 16.9 µM | NCI-H226 22.5 µM | SK-MEL-2 25.9 µM | MOLT-4 19.1 µM | HCC 2998 20.2 µM | RPMI-8226 20.4 µM | HCT-116 18.2 µM | SF-539 20.7 µM | COLO 205 10.3 µM | CCRF-CEM 18.7 µM | SF-295 22.8 µM | TK-10 67.6 µM | UO-31 29.9 µM | NCI-H460 19.1 µM

O=C(CSc1nc(=O)c(-c2ccccc2NC(=O)C(F)(F)F)n[nH]1)NC(=O)Nc1ccccc1
inactive: HOP-92 > 100 µM | RXF 393 > 100 µM | NCI-H226 67.8 µM | 786-0 > 100 µM | SK-MEL-2 > 100 µM | MOLT-4 > 100 µM | CAKI-1 48.1 µM | HCC 2998 > 100 µM | HCT-116 > 100 µM | SF-539 > 100 µM | NCI-H522 76.4 µM | COLO 205 > 100 µM | CCRF-CEM 94.8 µM | SF-295 > 100 µM | TK-10 45.9 µM | SNB-19 > 100 µM | UO-31 38.1 µM | NCI-H460 72.6 µM

CC(=O)OC[C@H]1O[C@@H](O[C@H]2[C@H](OC(C)=O)C=CO[C@@H]2COC(C)=O)C(OC(C)=O)[C@H]2OC(C)(C)O[C@H]21 (stereo partly specified)
inactive: ACHN > 100 µM | HOP-92 52.8 µM | RXF 393 2.43 µM | NCI-H226 > 100 µM | 786-0 > 100 µM | MOLT-4 > 100 µM | CAKI-1 > 100 µM | HCC 2998 > 100 µM | HCT-116 > 100 µM | SF-539 > 100 µM | NCI-H522 17.1 µM | COLO 205 > 100 µM | CCRF-CEM 62.8 µM | SF-295 > 100 µM | TK-10 > 100 µM | SNB-19 > 100 µM | UO-31 > 100 µM | NCI-H460 > 100 µM

COc1cc(-c2cc(=O)c3c(O)c(OC)c(OC)c(OC)c3o2)ccc1O
inactive: ACHN 21.4 µM | HOP-92 2.33 µM | RXF 393 13 µM | 786-0 29.8 µM | SK-MEL-2 17.7 µM | MOLT-4 23.1 µM | HCC 2998 34.6 µM | RPMI-8226 19 µM | HCT-116 24.8 µM | SF-539 11.8 µM | NCI-H522 17.1 µM | COLO 205 > 10 µM | CCRF-CEM 22.4 µM | SF-295 23.4 µM | TK-10 28.2 µM | SNB-19 34 µM | UO-31 28.8 µM | NCI-H460 16.2 µM

CCOS(C)(=O)=O [METHANESULFONIC ACID ETHYL ESTER]
inactive: ACHN > 100 µM | HOP-92 17 µM | RXF 393 > 100 µM | NCI-H226 > 100 µM | 786-0 > 100 µM | SK-MEL-2 > 100 µM | MOLT-4 > 100 µM | CAKI-1 > 100 µM | HCC 2998 > 100 µM | HCT-116 > 100 µM | SF-539 > 100 µM | NCI-H522 > 100 µM | COLO 205 > 100 µM | CCRF-CEM > 100 µM | SF-295 > 100 µM | TK-10 > 100 µM | SNB-19 > 100 µM | UO-31 > 100 µM | NCI-H460 > 100 µM

Reference: ChEMBL document CHEMBL1201862, “PubChem BioAssay data set” (2004)
